Measurements: US12325726B2, “Organic compounds” (priority 2018, dated 2025)
Like-named read-outs stand apart in the source and are kept apart here.

How the values were obtained:
[1] = system: rat; experiment: Rotorod test (sedative/hypnotic activity, duration of action); assay type: in vivo
Procedure: (§1) In vitro potency [ability to inhibit the binding of [^35S]-tert-butylbicyclophosphorothionate (TBPS)], rotorod TD50's (dose at which half of animals tested fail to stay on a rotating rod for 1 minute) and the length of time before animals tested are able to pass rotorod test (duration of action) of 3α-Hydroxy-21-(1′-imidazolyl)-3β-methoxymethyl-5α-pregnan-20-one is determined. These methods for measuring in vitro and in vivo activity of compounds of the invention are fully described in U.S. Pat. No. 5,232,917, incorporated herein by reference in its entirety. The TBPS assay gives the in vitro potency of compounds whereas the rotorod assay estimates the sedative/hypnotic activity of compounds. Since the duration of action of a compound is dependent on the dose and will be prolonged at higher doses, the duration of action is measured at the lowest dose at which all of the animals failed the rotorod test. IC50 is the dose of steroid inhibiting 50% of specific binding of [^35S]-tert-butylbicyclophorothionate (TBPS). Rotorod TD50 is the does at which half of animals fail the rotorod test in rat. Duration of action, measured at the lowest dose where all animals failed the rotorod test, is the time required for all animals tested to once again pass the rotorod test.

[2] = In vivo mouse pharmacokinetics, paired oral co-dosing, plasma and brain; set-up: species or system mice; details: 10 mg/kg po co-dosed; for AUC: 0.25-6 hr sampling
Procedure: In a first study, the compounds of Examples 2 to 6 are compared to the Compound of Formula A (Example 1) using standard procedures in mice. In each test, two compounds are co-dosed in a single animal and the relative pharmacokinetics in plasma and brain is determined. Each test compound is dissolved in polyethylene glycol 400 vehicle, and administered orally at a dose of 10 mg/kg. After single dose oral administration of the test compounds together, plasma and brain levels are measured at 0.25, 0.5, 1, 2, 4, and 6 hours post-dosing. The mean values for maximum concentration, time to maximum concentration, and Area Under the Curve (AUC) for both compounds are determined. The results are summarized in the tables below for various paired co-dosing experiments: […]

[3] = system: human hepatocyte; experiment: In vitro human hepatocyte stability assay; assay type: in vitro ADME; details: human hepatocytes
Procedure: The compounds of Examples 1, 2, 5 and 6 are compared in a standard in vitro human hepatocyte stability assay run in duplicate. Compounds are provided as 1 M solutions in DMSO, and concentration of test compound is determined at 0.5, 1.0 and 4.0 hours after addition of the test compound. Results are shown below as a percentage of initial concentration.

[4] = target: GABAA receptor; experiment: [35S]-TBPS binding inhibition (in vitro potency); details: inhibition of specific binding of [35S]-TBPS
Procedure: as §1

[5] = cited from earlier work
[6] = brain, read-out: Brain concentration
[7] = plasma, read-out: Plasma concentration

SMILES: COC[C@@]1(O)CC[C@@]2(C)[C@@H](CC[C@@H]3[C@@H]2CC[C@]2(C)[C@@H](C(=O)Cn4ccnc4)CC[C@@H]32)C1 [Example 1, 3α-Hydroxy-21-(1′-imidazolyl)-3β-methoxymethyl-5α-pregnan-20-one]
- TD50 ([1]; Rattus norvegicus, po, read-out: rotorod TD50 (po)): 28 mg/kg
- duration of action ([1]; at lowest dose where all animals failed the rotorod test, time until all pass again): 140 min
- Cmax ([2]; brain): 2880 ng/g
- Tmax ([2]; brain): 1 h
- AUC ([2]; brain): 14200 ng·h/mL
- concentration at 0.25 hr [2, 6]: 2280 ng/g
- concentration at 0.5 hr [2, 6]: 2230 ng/g
- concentration at 1 hr [2, 6]: 2880 ng/g
- concentration at 2 hr [2, 6]: 2520 ng/g
- concentration at 4 hr [2, 6]: 2360 ng/g
- concentration at 6 hr [2, 6]: 2090 ng/g
- Kp ([2]; brain/plasma, read-out: B/P AUC Ratio): 1.2
- Cmax ([2]; plasma): 2580 ng/mL
- Tmax ([2]; plasma): 1 h
- AUC ([2]; plasma): 11700 ng·h/mL
- concentration at 0.25 hr [2, 7]: 2270 ng/mL
- concentration at 0.5 hr [2, 7]: 1820 ng/mL
- concentration at 1 hr [2, 7]: 2580 ng/mL
- concentration at 2 hr [2, 7]: 2100 ng/mL
- concentration at 4 hr [2, 7]: 1840 ng/mL
- concentration at 6 hr [2, 7]: 1750 ng/mL
- percentage of initial concentration ([3]; 0 hr): 100%
- percentage of initial concentration ([3]; 0.5 hr): 94%
- percentage of initial concentration ([3]; 1.0 hr): 90%
- percentage of initial concentration ([3]; 4.0 hr): 78%
- IC50 [4]: 138 nM
- AUC (0-24) ([5]; human, oral 1 mg fasted, mean): 16.9 ng·h/mL
- AUC (0-last) ([5]; human, oral 1 mg fasted, mean): 22.4 ng·h/mL
- Cmax ([5]; human, oral 1 mg fasted, mean): 1.3 ng/mL
- T1/2 ([5]; human, oral 1 mg fasted, mean): 13.8 h
- Tmax ([5]; human, oral 1 mg fasted, mean): 3.1 h
- AUC (0-24) ([5]; human, oral 3 mg fasted, mean): 54.6 ng·h/mL
- AUC (0-last) ([5]; human, oral 3 mg fasted, mean): 65.6 ng·h/mL
- Cmax ([5]; human, oral 3 mg fasted, mean): 5.7 ng/mL
- T1/2 ([5]; human, oral 3 mg fasted, mean): 8.8 h
- Tmax ([5]; human, oral 3 mg fasted, mean): 2.8 h
- AUC (0-24) ([5]; human, oral 10 mg fasted, mean): 213 ng·h/mL
- AUC (0-last) ([5]; human, oral 10 mg fasted, mean): 254 ng·h/mL
- Cmax ([5]; human, oral 10 mg fasted, mean): 26.5 ng/mL
- T1/2 ([5]; human, oral 10 mg fasted, mean): 13.1 h
- Tmax ([5]; human, oral 10 mg fasted, mean): 1.7 h
- AUC (0-24) ([5]; human, oral 30 mg fasted, mean): 952 ng·h/mL
- AUC (0-last) ([5]; human, oral 30 mg fasted, mean): 1117 ng·h/mL
- Cmax ([5]; human, oral 30 mg fasted, mean): 120 ng/mL
- T1/2 ([5]; human, oral 30 mg fasted, mean): 13.1 h
- Tmax ([5]; human, oral 30 mg fasted, mean): 2.1 h
- AUC (0-24) ([5]; human, oral 60 mg fasted, mean): 2330 ng·h/mL
- AUC (0-last) ([5]; human, oral 60 mg fasted, mean): 2608 ng·h/mL
- Cmax ([5]; human, oral 60 mg fasted, mean): 330 ng/mL
- T1/2 ([5]; human, oral 60 mg fasted, mean): 12.5 h
- Tmax ([5]; human, oral 60 mg fasted, mean): 1.8 h
- T1/2 ([5]; humans, oral dosing, average across five dosing groups): approximately 12 hours
